{
  "source": "patent US8834843B2",
  "about": "“Imaging method” (GE Healthcare Limited, priority 2007, dated 2014)",
  "key": {"BDL fibrogenic liver": {"test_system": "BDL fibrogenic liver", "test": "Biodistribution in BDL rats with and without excess cold compound", "assay_type": "in vivo", "details": "rat, in vivo", "protocol": "(§1) On the appropriate day post surgery BDL and sham animals were removed and put under isoflurane anaesthesia, then each animal was injected with 0.3 ml intravenously (i.v.) via tail vein (˜3MBq). At the appropriate time point post-injection of the test item, each animal was re-anaesthetised with isoflurane, sacrificed by cervical dislocation weighed and the weight recorded via a barcode scanning system. Each animal was dissected and the following organs and tissues were removed and counted using BASIL counter protocol 40 or manual counting:\n(§2) The recorded activity in a whole organ (e.g., liver) was corrected for background radioactivity and for radioactive decay and the biodistribution of radioactivity calculated by reference to Formula I:\n(§3) [formula] where: • A=counts per second measured in organ • B=total counts per second measured in all samples (excluding the injection site)\n(§4) The percentage of injected radioactivity in the weighed tissue samples (e.g., blood) was calculated to give % i.d. in the entire tissue by reference to Formula 2:\n(§5) [formula] where: • Zs=counts per second in sample • Ws=weight of sample in grams • Wb=weight of animal in grams immediately after sacrifice • B=total counts per second measured in all the samples (excluding the injection site) • F=tissue specific factor representing the mass of the tissue as a proportion of the total body weight of the animal\n(§6) The biodistribution of radioactivity was investigated in 15 days post-operatively in BDL and sham-operated male Sprague Dawley rats (procedures described in Example 3) 1 hour following of intravenous injection via tail vein of ˜3 MBq of Compound 8, both before and after addition of 1:100 and 1:10,000 fold excess of cold Compound 8. At the appropriate time point post-injection of the test Item, each animal was re-anaesthetised with isoflurane, sacrificed by cervical dislocation and weighed. Each animal was dissected and organs and tissues (see Tables 5 and 6 below) were removed and counted using BASIL counter protocol 40 or manual counting."}, "[1]": {"test": "Biodistribution in sham-operated rats with and without excess cold compound", "assay_type": "in vivo", "details": "male, Sprague Dawley, rat, iv, total radioactivity, 15 days post-op, 1 hour post-injection; for dose excreted at 1 h: bile and urine", "protocol": "as §1, §2, §3, §4, §5, §6"}},
  "note": "Like-named read-outs stand apart in the source and are kept apart here. Numbered stars: 1 amine (or outer) side, 2 acyl side, 3 side chain; on linkers, the order of the positions; unused ones are H or OH. Bridge positions count the residues as written; N and C are the ends. Side chains are listed from the residue outwards. Peptide text beside a SMILES is read from it. * marks the point of attachment. X1 = C/C(=N\\O)C(C)(C)NCCC(CCNC(C)(C)/C(C)=N/O)CCN*; Glutaryl = O=C(CCCC(=O)[*:2])[*:1]; X2 = NC(=O)COCC(=O)NCCOCCOCCOCCN*",
  "data": [
    {"smiles": "C/C(=N\\O)C(C)(C)NCCC(CCNC(=O)CCCC(=O)NCCCC[C@@H]1NC(=O)CSC[C@@H](C(=O)NCCOCCOCCOCCNC(=O)COCC(N)=O)NC(=O)[C@H](Cc2ccccc2)NC(=O)[C@@H]2CSSC[C@H](NC1=O)C(=O)N[C@@H](CCCNC(=N)N)C(=O)NCC(=O)N[C@@H](CC(=O)O)C(=O)N2)CCNC(C)(C)/C(C)=N/O", "note": "(stereo partly shown) [Compound 8] ({CH2CO}-K([Glutaryl-X1])CRGDCFC-X2; disulfide 2-6; thioether N-8)", "values": [
      {"measurement": "Binding to BDL fibrogenic liver with excess cold compound (in words)", "setting": "BDL fibrogenic liver", "value": "Specifically Inhibited by Cold Compound 8"},
      {"measurement": "dose excreted at 1 h", "setting": "[1]; +10K-fold excess cold Compound 8", "value": 46.5, "unit": "%"},
      {"measurement": "dose excreted at 1 h", "setting": "[1]; +100-fold excess cold Compound 8", "value": 43.2, "unit": "%"},
      {"measurement": "dose excreted at 1 h", "setting": "[1]; no excess", "value": 44.6, "unit": "%"},
      {"measurement": "tissue uptake dose at 1 h", "setting": "[1]; blood, +10K-fold excess cold Compound 8, read-out: Activity in Blood, Mean", "value": 1.4, "unit": "%ID"},
      {"measurement": "tissue uptake dose at 1 h", "setting": "[1]; blood, +100-fold excess cold Compound 8, read-out: Activity in Blood, Mean", "value": 1.37, "unit": "%ID"},
      {"measurement": "tissue uptake dose at 1 h", "setting": "[1]; blood, no excess, read-out: Activity in Blood, Mean", "value": 1.55, "unit": "%ID"},
      {"measurement": "tissue uptake dose at 1 h", "setting": "[1]; bone, 3 MBq, +10K-fold excess cold Compound 8, read-out: Activity in Bone, Mean", "value": 2.42, "unit": "%ID"},
      {"measurement": "tissue uptake dose at 1 h", "setting": "[1]; bone, 3 MBq, +100-fold excess cold Compound 8, read-out: Activity in Bone, Mean", "value": 3.06, "unit": "%ID"},
      {"measurement": "tissue uptake dose at 1 h", "setting": "[1]; bone, 3 MBq, no excess, read-out: Activity in Bone, Mean", "value": 3.1, "unit": "%ID"},
      {"measurement": "tissue uptake dose at 1 h", "setting": "[1]; carcass, 3 MBq, +10K-fold excess cold Compound 8, read-out: Activity in Carcass, Mean", "value": 11.6, "unit": "%ID"},
      {"measurement": "tissue uptake dose at 1 h", "setting": "[1]; carcass, 3 MBq, +100-fold excess cold Compound 8, read-out: Activity in Carcass, Mean", "value": 9.32, "unit": "%ID"},
      {"measurement": "tissue uptake dose at 1 h", "setting": "[1]; carcass, 3 MBq, no excess, read-out: Activity in Carcass, Mean", "value": 8.45, "unit": "%ID"},
      {"measurement": "tissue uptake dose at 1 h", "setting": "[1]; heart, 3 MBq, +10K-fold excess cold Compound 8, read-out: Activity in Heart, Mean", "value": 0.1, "unit": "%ID"},
      {"measurement": "tissue uptake dose at 1 h", "setting": "[1]; heart, 3 MBq, +100-fold excess cold Compound 8, read-out: Activity in Heart, Mean", "value": 0.1, "unit": "%ID"},
      {"measurement": "tissue uptake dose at 1 h", "setting": "[1]; heart, 3 MBq, no excess, read-out: Activity in Heart, Mean", "value": 0.12, "unit": "%ID"},
      {"measurement": "tissue uptake dose at 1 h", "setting": "[1]; injection site, 3 MBq, +10K-fold excess cold Compound 8, read-out: Activity in Injection Site, Mean", "value": 1.71, "unit": "%ID"},
      {"measurement": "tissue uptake dose at 1 h", "setting": "[1]; injection site, 3 MBq, +100-fold excess cold Compound 8, read-out: Activity in Injection Site, Mean", "value": 1.44, "unit": "%ID"},
      {"measurement": "tissue uptake dose at 1 h", "setting": "[1]; injection site, 3 MBq, no excess, read-out: Activity in Injection Site, Mean", "value": 1.66, "unit": "%ID"},
      {"measurement": "tissue uptake dose at 1 h", "setting": "[1]; kidneys, +10K-fold excess cold Compound 8, read-out: Activity in Kidneys, Mean", "value": 3.65, "unit": "%ID"},
      {"measurement": "tissue uptake dose at 1 h", "setting": "[1]; kidneys, +100-fold excess cold Compound 8, read-out: Activity in Kidneys, Mean", "value": 4.13, "unit": "%ID"},
      {"measurement": "tissue uptake dose at 1 h", "setting": "[1]; kidneys, no excess, read-out: Activity in Kidneys, Mean", "value": 4.07, "unit": "%ID"},
      {"measurement": "tissue uptake dose at 1 h", "setting": "[1]; liver, 3 MBq, +10K-fold excess cold Compound 8, read-out: Activity in Liver, Mean", "value": 3.03, "unit": "%ID"},
      {"measurement": "tissue uptake dose at 1 h", "setting": "[1]; liver, 3 MBq, +100-fold excess cold Compound 8, read-out: Activity in Liver, Mean", "value": 3.52, "unit": "%ID"},
      {"measurement": "tissue uptake dose at 1 h", "setting": "[1]; liver, 3 MBq, no excess, read-out: Activity in Liver, Mean", "value": 3.71, "unit": "%ID"},
      {"measurement": "tissue uptake dose at 1 h", "setting": "[1]; lung, 3 MBq, +10K-fold excess cold Compound 8, read-out: Activity in Lung, Mean", "value": 0.39, "unit": "%ID"},
      {"measurement": "tissue uptake dose at 1 h", "setting": "[1]; lung, 3 MBq, +100-fold excess cold Compound 8, read-out: Activity in Lung, Mean", "value": 0.38, "unit": "%ID"},
      {"measurement": "tissue uptake dose at 1 h", "setting": "[1]; lung, 3 MBq, no excess, read-out: Activity in Lung, Mean", "value": 0.46, "unit": "%ID"},
      {"measurement": "tissue uptake dose at 1 h", "setting": "[1]; muscle, 3 MBq, +100-fold excess cold Compound 8, read-out: Activity in Muscle, Mean", "value": 10.9, "unit": "%ID"},
      {"measurement": "tissue uptake dose at 1 h", "setting": "[1]; muscle, 3 MBq, no excess, read-out: Activity in Muscle, Mean", "value": 10.4, "unit": "%ID"},
      {"measurement": "tissue uptake dose at 1 h", "setting": "[1]; muscle, +10K-fold excess cold Compound 8, read-out: Activity in Muscle, Mean", "value": 8.41, "unit": "%ID"},
      {"measurement": "tissue uptake dose at 1 h", "setting": "[1]; skin, 3 MBq, +10K-fold excess cold Compound 8, read-out: Activity in Skin, Mean", "value": 12.7, "unit": "%ID"},
      {"measurement": "tissue uptake dose at 1 h", "setting": "[1]; skin, 3 MBq, +100-fold excess cold Compound 8, read-out: Activity in Skin, Mean", "value": 14, "unit": "%ID"},
      {"measurement": "tissue uptake dose at 1 h", "setting": "[1]; skin, 3 MBq, no excess, read-out: Activity in Skin, Mean", "value": 14.4, "unit": "%ID"},
      {"measurement": "tissue uptake dose at 1 h", "setting": "[1]; small and large intestine, 3 MBq, +10K-fold excess cold Compound 8, read-out: Activity in Small & Large Intestine, Mean", "value": 7.54, "unit": "%ID"},
      {"measurement": "tissue uptake dose at 1 h", "setting": "[1]; small and large intestine, 3 MBq, +100-fold excess cold Compound 8, read-out: Activity in Small & Large Intestine, Mean", "value": 8.42, "unit": "%ID"},
      {"measurement": "tissue uptake dose at 1 h", "setting": "[1]; small and large intestine, 3 MBq, no excess, read-out: Activity in Small & Large Intestine, Mean", "value": 7.86, "unit": "%ID"},
      {"measurement": "tissue uptake dose at 1 h", "setting": "[1]; spleen, 3 MBq, +10K-fold excess cold Compound 8, read-out: Activity in Spleen, Mean", "value": 0.27, "unit": "%ID"},
      {"measurement": "tissue uptake dose at 1 h", "setting": "[1]; spleen, 3 MBq, +100-fold excess cold Compound 8, read-out: Activity in Spleen, Mean", "value": 0.29, "unit": "%ID"},
      {"measurement": "tissue uptake dose at 1 h", "setting": "[1]; spleen, 3 MBq, no excess, read-out: Activity in Spleen, Mean", "value": 0.29, "unit": "%ID"},
      {"measurement": "tissue uptake dose at 1 h", "setting": "[1]; stomach, 3 MBq, +10K-fold excess cold Compound 8, read-out: Activity in Stomach, Mean", "value": 1.92, "unit": "%ID"},
      {"measurement": "tissue uptake dose at 1 h", "setting": "[1]; stomach, 3 MBq, +100-fold excess cold Compound 8, read-out: Activity in Stomach, Mean", "value": 1.21, "unit": "%ID"},
      {"measurement": "tissue uptake dose at 1 h", "setting": "[1]; stomach, 3 MBq, no excess, read-out: Activity in Stomach, Mean", "value": 0.9, "unit": "%ID"},
      {"measurement": "tissue uptake dose at 1 h", "setting": "[1]; thyroid, 3 MBq, +10K-fold excess cold Compound 8, read-out: Activity in Thyroid, Mean", "value": 0.04, "unit": "%ID"},
      {"measurement": "tissue uptake dose at 1 h", "setting": "[1]; thyroid, 3 MBq, +100-fold excess cold Compound 8, read-out: Activity in Thyroid, Mean", "value": 0.05, "unit": "%ID"},
      {"measurement": "tissue uptake dose at 1 h", "setting": "[1]; thyroid, 3 MBq, no excess, read-out: Activity in Thyroid, Mean", "value": 0.05, "unit": "%ID"}
    ]}
  ]
}
